Assay results taken from ChEMBL document CHEMBL1128712, “Increasing binding constants of ligands to carbonic anhydrase by using "greasy tails"” (J Med Chem, 1995).

Assays:
[1] = target: Carbonic anhydrase 2 (Bos taurus) (UniProt P00921); assay: Evaluation of binding constant to bovine carbonic anhydrase II, measured by fluorescence in 20 mM phosphate buffer (pH=7.5)
[2] = Partition coefficient (logD7.5); assay type: physicochemical; conditions: octanol/water, pH 7.5
[3] = Evaluation of ionization constant between octanol and 20 mM phosphate buffer (pH =7.5); assay type: physicochemical; conditions: octanol/20 mM phosphate buffer
[4] = target: Carbonic anhydrase 2 (Bos taurus) (UniProt P00921); assay: Compound was tested for the binding affinity towards Carbonic anhydrase II by competitive fluorescence assay with dansylamide

Sequence of Carbonic anhydrase 2 (Bos taurus) (P00921 2-260 limits assumed): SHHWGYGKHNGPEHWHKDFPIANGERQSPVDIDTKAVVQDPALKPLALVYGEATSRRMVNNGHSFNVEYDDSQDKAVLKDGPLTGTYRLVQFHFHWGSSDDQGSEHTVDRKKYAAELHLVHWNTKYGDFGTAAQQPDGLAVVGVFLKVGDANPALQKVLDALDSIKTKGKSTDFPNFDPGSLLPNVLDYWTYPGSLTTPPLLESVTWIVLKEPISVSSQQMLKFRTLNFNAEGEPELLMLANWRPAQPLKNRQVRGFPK

Kb [1] [M⁻¹] | logD [2] | pKa [3] | Kb [4] [M⁻¹] | Structure (SMILES)
1.2e+07 | 1.63 | – | – | NS(=O)(=O)c1ccc(CNC(=O)CCC2CCCC2)cc1
7.1e+06 | 1.84 | – | – | CCCCC(CC)C(=O)NCc1ccc(S(N)(=O)=O)cc1 (centres undefined)
4.7e+07 | 0.845 | – | – | NS(=O)(=O)c1ccc(C(=O)NCC(F)(F)F)cc1
5.7e+06 | 1.46 | – | – | CCCCCCC(=O)NCc1ccc(S(N)(=O)=O)cc1
1.1e+07 | 0.146 | – | – | CN(C)C(=O)c1ccc(S(N)(=O)=O)cc1
6e+06 | 0.778 | – | – | NS(=O)(=O)c1ccc(CNC(=O)C2CCCC2)cc1
6.3e+07 | 1.11 | – | – | CCCCNC(=O)c1ccc(S(N)(=O)=O)cc1
1.7e+07 | 0.929 | – | – | CCN(CC)C(=O)c1ccc(S(N)(=O)=O)cc1
1.3e+08 | 2.21 | – | – | CCCCCCNC(=O)c1ccc(S(N)(=O)=O)cc1
1.3e+07 | 1.62 | – | – | NS(=O)(=O)c1ccc(CNC(=O)CC2CCCCC2)cc1
7.6e+06 | 1.08 | – | – | NS(=O)(=O)c1ccc(CNC(=O)C2CCCCC2)cc1
5.9e+06 | 0.176 | – | – | CCNC(=O)c1ccc(S(N)(=O)=O)cc1
– | – | 9.8 | – | NS(=O)(=O)c1ccc(CNC(=O)C(F)(F)C(F)(F)F)cc1
– | – | 10.2 | – | CC(=O)NCc1ccc(S(N)(=O)=O)cc1
7.1e+06 | 1.04 | – | – | CC(C)(C)CC(=O)NCc1ccc(S(N)(=O)=O)cc1
2.9e+06 | 1 | – | – | CCC(CC)C(=O)NCc1ccc(S(N)(=O)=O)cc1
2.6e+07 | 0.531 | – | – | CCCNC(=O)c1ccc(S(N)(=O)=O)cc1
1.8e+08 | 1.52 | – | – | NS(=O)(=O)c1ccc(C(=O)NCC(F)(F)C(F)(F)F)cc1
5.7e+06 | 1.32 | – | – | CCCC(C)CC(=O)NCc1ccc(S(N)(=O)=O)cc1 (centres undefined)
1.9e+07 | 2.08 | – | – | CCCN(CCC)C(=O)c1ccc(S(N)(=O)=O)cc1
4.8e+06 | 1.04 | – | – | CC(C)CCC(=O)NCc1ccc(S(N)(=O)=O)cc1
7.6e+06 | 1.08 | – | – | NS(=O)(=O)c1ccc(CNC(=O)CC2CCCC2)cc1
– | – | 9.9 | – | CCC(=O)NCc1ccc(S(N)(=O)=O)cc1
1e+07 | 1.49 | – | – | NS(=O)(=O)c1ccc(CNC(=O)C2CCCCCC2)cc1
5.1e+06 | 1.23 | – | – | CCCCCC(=O)NCc1ccc(S(N)(=O)=O)cc1
– | – | 10.1 | – | NS(=O)(=O)c1ccc(CNC(=O)C(F)(F)F)cc1
– | 1.84 | – | 1.2e+07 | CCCCCCCC(=O)NCc1ccc(S(N)(=O)=O)cc1

Structure (SMILES) | Kb [1] [M⁻¹] | logD [2] | pKa [3] | Kb [4] [M⁻¹]
NS(=O)(=O)c1ccc(C(=O)NCC(F)(F)C(F)(F)C(F)(F)F)cc1 | 1.1e+09 | 2.04 | – | –
CC1(C)C(C(=O)NCc2ccc(S(N)(=O)=O)cc2)C1(C)C | 1.1e+07 | 1.57 | – | –
